Literature values in patent US11944682B2, “Aggregation induced emission-bacteriophage bioconjugates” (priority 2020, dated 2024).

Settings: used as standard

O=C1OC2(c3cc(I)c(O)c(I)c3Oc3c2cc(I)c(O)c3I)c2c(Cl)c(Cl)c(Cl)c(Cl)c21 [Rose Bengal, Rose Bengal lactone]
quantum yield for 1O2 (standard): ~75%
